Results taken from patent US20240025862A1, “SUBSTITUTED N-PHENYLURACILS AND SALTS THEREOF, AND USE THEREOF AS HERBICIDAL ACTIVE SUBSTANCES” (Bayer Aktiengesellschaft, priority 2020, published 2024).

How the values were obtained:
Assay type in all cases: in vivo
[1] = test system: Abutilon theophrasti (ABUTH); assay: Post-emergence herbicidal action, greenhouse pot test; conditions: rated visually after about 3 weeks vs untreated controls, 100% = plants have died
In short: (§1)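 Activity was scored by eye about 3 weeks after treatment against untreated plants, where 100% means dead plants and 0% means no difference. Plants at the one-leaf stage received a foliar spray of WP or EC formulations in water plus 0.5% additive (600 l/ha, up to 20 g/ha). Plants were grown in sandy loam pots in a greenhouse for 2–3 weeks before spraying.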

[2] = test system: Amaranthus retroflexus (AMARE); assay: as above; conditions: rated visually after about 3 weeks vs untreated controls, 100% = plants have died
In short: as §1

[3] = test system: Pharbitis purpurea (PHBPU); assay: as above; conditions: dosage 5 g/ha
In short: as §1

[4] = test system: Polygonum convolvulus (POLCO); assay: as above; conditions: dosage 5 g/ha
In short: as §1

[5] = test system: Veronica persica (VERPE); assay: as above
In short: as §1

[6] = test system: Viola tricolor (VIOTR); assay: as above
In short: as §1

[7] = test system: Alopecurus myosuroides (ALOMY); assay: Post-emergence herbicidal action, greenhouse pot test (also comparative test C); conditions: rated visually after about 3 weeks vs untreated controls, 100% = plants have died
In short: (§2)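 Green parts of one-leaf-stage plants are sprayed at 600 l/ha with formulated compound plus 0.5% additive, then kept under optimum greenhouse conditions for about 3 weeks. Damage is scored visually, where 100% means dead plants and 0% means no difference from controls.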

[8] = test system: Echinochloa crus-galli (ECHCG); assay: as above; conditions: dosage 5 g/ha
In short: as §2

[9] = test system: Matricaria inodora (MATIN); assay: as above
In short: as §2

[10] = test system: Setaria viridis (SETVI); assay: as above
In short: as §2

[11] = test system: Brassica napus (BRSNW); assay: Post-emergence crop plant compatibility, greenhouse pot test; conditions: 1.25 g/ha, vs untreated controls
In short: (§3)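 Visual % damage vs untreated controls, scored ~3 weeks post-spray (100% = dead, 0% = as control). Plants in sandy loam, greenhouse; treated at one-leaf stage, 2–3 wk after sowing. WP/EC, aqueous, 0.5% additive, 600 l/ha. Suffixes a/b/c = different dosages.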

[12] = test system: Triticum aestivum (TRZAS); assay: as above; conditions: 1.25 g/ha, vs untreated controls
In short: as §3

[13] = test system: Oryza sativa (ORYSA); assay: Post-emergence crop plant compatibility, greenhouse pot test (also comparative test C); conditions: vs untreated controls
In short: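 Visual damage versus untreated plants (0% = like control, 100% = plants died) was scored about 3 weeks after a post-emergence spray in greenhouse pots. Treatment: one-leaf stage, WP or EC in water at 600 l/ha with 0.5% additive; a/b/c mark different dosages on the same crop.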

[14] = test system: Abutilon theophrasti (ABUTH); assay: Pre-emergence herbicidal action, greenhouse pot test; conditions: scored after about 3 weeks
Description: (§4) Seeds of monocotyledonous and dicotyledonous weed plants and crop plants were placed in plastic or organic planting pots and covered with soil. The compounds of the invention, formulated in the form of wettable powders (WP) or as emulsion concentrates (EC), were then applied to the surface of the covering soil as aqueous suspension or emulsion with addition of 0.5% additive at a water application rate equivalent to 600 l/ha (converted). After the treatment, the pots were placed in a greenhouse and kept under good growth conditions for the test plants. After about 3 weeks, the effect of the preparations was scored visually in comparison with untreated controls as percentages. For example, 100% activity=the plants have died, 0% activity=like control plants.
(§5) Tables B1 to B10 below show the effects of selected compounds of the general formula (I) according to Tables I.1 to I.33 on various harmful plants and at an application rate corresponding to 80 g/ha and less, which were obtained by the experimental method specified above. The appendices “a”, “b” and “c” give differentiation by different dosage with otherwise the same harmful plants tested.

[15] = test system: Alopecurus myosuroides (ALOMY); assay: as above; conditions: scored after about 3 weeks
Description: as §4, §5

[16] = test system: Amaranthus retroflexus (AMARE); assay: as above; conditions: scored after about 3 weeks
Description: as §4, §5

[17] = test system: Avena fatua (AVEFA); assay: as above; conditions: 80 g/ha, scored after about 3 weeks
Description: as §4, §5

[18] = test system: Digitaria sanguinalis (DIGSA); assay: as above; conditions: scored after about 3 weeks
Description: as §4, §5

[19] = test system: Echinochloa crus-galli (ECHCG); assay: as above; conditions: scored after about 3 weeks
Description: as §4, §5

[20] = test system: Lolium rigidum (LOLRI); assay: as above; conditions: scored after about 3 weeks
Description: as §4, §5

[21] = test system: Matricaria inodora (MATIN); assay: as above; conditions: scored after about 3 weeks
Description: as §4, §5

[22] = test system: Pharbitis purpurea (PHBPU); assay: as above; conditions: scored after about 3 weeks
Description: as §4, §5

[23] = test system: Veronica persica (VERPE); assay: as above; conditions: scored after about 3 weeks
Description: as §4, §5

[24] = test system: Glycine max (GLXMA); assay: Pre-emergence crop plant compatibility, greenhouse pot test; conditions: 20 g/ha
Description: as §4
(§6) The observed effects on selected crop plants are reported here in comparison to the untreated controls (values in %).

[25] = test system: Zea mays (ZEAMX); assay: as above; conditions: 20 g/ha
Description: as §4, §6

COCCOCCOC(=O)COc1ccccc1Oc1cc(-n2c(=O)cc(C(F)(F)F)n(C)c2=O)c(F)cc1Cl [I.7-23]
Post-emergence action at 1.25 g/ha against ABUTH in % ([1]; 1.25 g/ha): 100% | Post-emergence action at 5 g/ha against ABUTH in % ([1]; 5 g/ha): 100% | Post-emergence action at 1.25 g/ha against AMARE in % ([2]; 1.25 g/ha): 100% | Post-emergence action at 5 g/ha against AMARE in % ([2]; 5 g/ha): 100% | Post-emergence action against PHBPU in % [3]: 100% | Post-emergence action against POLCO in % [4]: 100% | Post-emergence action against VERPE ([5]; 1.25 g/ha): 90% | Post-emergence action against VERPE ([5]; 5 g/ha): 100% | Post-emergence action against VIOTR ([6]; 1.25 g/ha): 100% | Post-emergence action against VIOTR ([6]; 5 g/ha): 100% | Post-emergence action at 1.25 g/ha against ALOMY in % ([7]; 1.25 g/ha): 80% | Post-emergence action at 5 g/ha against ALOMY in % ([7]; 5 g/ha): 100% | Post-emergence action against ECHCG in % [8]: 100% | Post-emergence action against MATIN in % ([9]; dosage 1.25 g/ha): 90% | Post-emergence action against MATIN in % ([9]; dosage 5 g/ha): 100% | Post-emergence action against SETVI in % ([10]; dosage 1.25 g/ha): 100% | Post-emergence action against SETVI in % ([10]; dosage 5 g/ha): 100% | Post-emergence action against BRSNW (crop plant compatibility) [11]: 20% | Post-emergence action against TRZAS (crop plant compatibility) [12]: 10% | Post-emergence action against ORYSA (crop plant compatibility) ([13]; 1.25 g/ha): 10% | Post-emergence action against ORYSA (crop plant compatibility) ([13]; 5 g/ha): 20% | Pre-emergence action against ABUTH in % ([14]; 20 g/ha): 100% | Pre-emergence action against ABUTH in % ([14]; 80 g/ha): 100% | Pre-emergence action against ALOMY in % ([15]; 20 g/ha): 90% | Pre-emergence action against ALOMY in % ([15]; 80 g/ha): 100% | Pre-emergence action against AMARE in % ([16]; 20 g/ha): 100% | Pre-emergence action against AMARE in % ([16]; 80 g/ha): 100% | Pre-emergence action against AVEFA in % [17]: 90% | Pre-emergence action against DIGSA in % ([18]; 20 g/ha): 100% | Pre-emergence action against DIGSA in % ([18]; 80 g/ha): 100% | Pre-emergence action against ECHCG in % ([19]; 20 g/ha): 80% | Pre-emergence action against ECHCG in % ([19]; 80 g/ha): 90% | Pre-emergence action against LOLRI in % ([20]; 20 g/ha): 90% | Pre-emergence action against LOLRI in % ([20]; 80 g/ha): 100% | Pre-emergence action against MATIN in % ([21]; 20 g/ha): 100% | Pre-emergence action against MATIN in % ([21]; 80 g/ha): 100% | Pre-emergence action against PHBPU in % ([22]; 20 g/ha): 100% | Pre-emergence action against PHBPU in % ([22]; 80 g/ha): 100% | Pre-emergence action against VERPE in % ([23]; 20 g/ha): 100% | Pre-emergence action against VERPE in % ([23]; 80 g/ha): 100% | Pre-emergence action against GLXMA in % [24]: 10% | Pre-emergence action against ZEAMX in % [25]: 20%
